Laboratory results as given in ChEMBL document CHEMBL4507269, “Data for DCP probe BAY-386” (2021).

Legend:
[1] = molecular target: Mu-type opioid receptor (Homo sapiens) (UniProt P35372); settings: Compound concentration 10.0 uM
[2] = molecular target: T1, Muscarinic acetylcholine receptor M2 (Homo sapiens) (UniProt P08172); settings: Compound concentration 10.0 uM
T1 sequence (whole entry): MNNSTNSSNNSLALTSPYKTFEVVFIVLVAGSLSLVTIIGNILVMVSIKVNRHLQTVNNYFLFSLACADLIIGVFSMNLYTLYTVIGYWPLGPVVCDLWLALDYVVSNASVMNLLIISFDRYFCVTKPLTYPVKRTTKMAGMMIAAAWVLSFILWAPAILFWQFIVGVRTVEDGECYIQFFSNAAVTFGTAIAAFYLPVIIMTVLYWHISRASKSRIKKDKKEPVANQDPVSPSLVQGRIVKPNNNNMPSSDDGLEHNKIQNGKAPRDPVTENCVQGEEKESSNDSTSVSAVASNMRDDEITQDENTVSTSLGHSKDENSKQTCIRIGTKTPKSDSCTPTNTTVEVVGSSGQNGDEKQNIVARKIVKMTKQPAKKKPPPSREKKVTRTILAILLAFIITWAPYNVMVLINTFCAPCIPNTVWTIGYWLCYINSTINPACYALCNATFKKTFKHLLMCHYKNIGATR

[3] = molecular target: Purinergic P2Y (Rattus norvegicus) (UniProt O35811+Q9EPX4+P49651+Q63371+P41232+O35881+Q6GUG4); settings: Compound concentration 10.0 uM
[4] = molecular target: T2, Alpha-1A adrenergic receptor (Homo sapiens) (UniProt P35348); settings: Rattus norvegicus; Compound concentration 10.0 uM
T2 sequence (whole entry): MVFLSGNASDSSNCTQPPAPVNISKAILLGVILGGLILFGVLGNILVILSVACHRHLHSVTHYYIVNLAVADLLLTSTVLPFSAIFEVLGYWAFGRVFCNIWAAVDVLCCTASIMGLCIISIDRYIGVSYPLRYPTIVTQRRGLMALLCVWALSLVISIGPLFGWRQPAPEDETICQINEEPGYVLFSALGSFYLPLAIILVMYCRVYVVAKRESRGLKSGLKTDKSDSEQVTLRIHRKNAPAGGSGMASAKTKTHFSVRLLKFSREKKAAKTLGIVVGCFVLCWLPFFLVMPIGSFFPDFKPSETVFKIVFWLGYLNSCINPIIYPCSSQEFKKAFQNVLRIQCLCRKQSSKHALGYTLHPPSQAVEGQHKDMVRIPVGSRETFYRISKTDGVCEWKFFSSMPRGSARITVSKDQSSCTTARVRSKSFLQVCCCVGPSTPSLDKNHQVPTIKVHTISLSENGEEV

Oryctolagus cuniculus = organism: Oryctolagus cuniculus; assay: Inhibition of Purinergic P2X at 10 µM in the Eurofins-Panlabs radioligand binding assay (Eurofins_assay_268700); assay type: protein assay; settings: Compound concentration 10.0 uM
Rattus norvegicus [5] = organism: Rattus norvegicus; assay: Inhibition of Glutamate, NMDA, Phencyclidine at 10 µM in the Eurofins-Panlabs radioligand binding assay (Eurofins_assay_233000); assay type: protein-complex assay; settings: Compound concentration 10.0 uM
[6] = molecular target: Voltage-dependent N-type calcium channel subunit alpha-1B (Homo sapiens) (UniProt Q00975); assay: Inhibition of Calcium Channel N-Type at 10 µM in the Eurofins-Panlabs radioligand binding assay (Eurofins_assay_216000); settings: Rattus norvegicus; Compound concentration 10.0 uM
Chain of Voltage-dependent N-type calcium channel subunit alpha-1B (Homo sapiens) (Q00975 whole entry, looked up): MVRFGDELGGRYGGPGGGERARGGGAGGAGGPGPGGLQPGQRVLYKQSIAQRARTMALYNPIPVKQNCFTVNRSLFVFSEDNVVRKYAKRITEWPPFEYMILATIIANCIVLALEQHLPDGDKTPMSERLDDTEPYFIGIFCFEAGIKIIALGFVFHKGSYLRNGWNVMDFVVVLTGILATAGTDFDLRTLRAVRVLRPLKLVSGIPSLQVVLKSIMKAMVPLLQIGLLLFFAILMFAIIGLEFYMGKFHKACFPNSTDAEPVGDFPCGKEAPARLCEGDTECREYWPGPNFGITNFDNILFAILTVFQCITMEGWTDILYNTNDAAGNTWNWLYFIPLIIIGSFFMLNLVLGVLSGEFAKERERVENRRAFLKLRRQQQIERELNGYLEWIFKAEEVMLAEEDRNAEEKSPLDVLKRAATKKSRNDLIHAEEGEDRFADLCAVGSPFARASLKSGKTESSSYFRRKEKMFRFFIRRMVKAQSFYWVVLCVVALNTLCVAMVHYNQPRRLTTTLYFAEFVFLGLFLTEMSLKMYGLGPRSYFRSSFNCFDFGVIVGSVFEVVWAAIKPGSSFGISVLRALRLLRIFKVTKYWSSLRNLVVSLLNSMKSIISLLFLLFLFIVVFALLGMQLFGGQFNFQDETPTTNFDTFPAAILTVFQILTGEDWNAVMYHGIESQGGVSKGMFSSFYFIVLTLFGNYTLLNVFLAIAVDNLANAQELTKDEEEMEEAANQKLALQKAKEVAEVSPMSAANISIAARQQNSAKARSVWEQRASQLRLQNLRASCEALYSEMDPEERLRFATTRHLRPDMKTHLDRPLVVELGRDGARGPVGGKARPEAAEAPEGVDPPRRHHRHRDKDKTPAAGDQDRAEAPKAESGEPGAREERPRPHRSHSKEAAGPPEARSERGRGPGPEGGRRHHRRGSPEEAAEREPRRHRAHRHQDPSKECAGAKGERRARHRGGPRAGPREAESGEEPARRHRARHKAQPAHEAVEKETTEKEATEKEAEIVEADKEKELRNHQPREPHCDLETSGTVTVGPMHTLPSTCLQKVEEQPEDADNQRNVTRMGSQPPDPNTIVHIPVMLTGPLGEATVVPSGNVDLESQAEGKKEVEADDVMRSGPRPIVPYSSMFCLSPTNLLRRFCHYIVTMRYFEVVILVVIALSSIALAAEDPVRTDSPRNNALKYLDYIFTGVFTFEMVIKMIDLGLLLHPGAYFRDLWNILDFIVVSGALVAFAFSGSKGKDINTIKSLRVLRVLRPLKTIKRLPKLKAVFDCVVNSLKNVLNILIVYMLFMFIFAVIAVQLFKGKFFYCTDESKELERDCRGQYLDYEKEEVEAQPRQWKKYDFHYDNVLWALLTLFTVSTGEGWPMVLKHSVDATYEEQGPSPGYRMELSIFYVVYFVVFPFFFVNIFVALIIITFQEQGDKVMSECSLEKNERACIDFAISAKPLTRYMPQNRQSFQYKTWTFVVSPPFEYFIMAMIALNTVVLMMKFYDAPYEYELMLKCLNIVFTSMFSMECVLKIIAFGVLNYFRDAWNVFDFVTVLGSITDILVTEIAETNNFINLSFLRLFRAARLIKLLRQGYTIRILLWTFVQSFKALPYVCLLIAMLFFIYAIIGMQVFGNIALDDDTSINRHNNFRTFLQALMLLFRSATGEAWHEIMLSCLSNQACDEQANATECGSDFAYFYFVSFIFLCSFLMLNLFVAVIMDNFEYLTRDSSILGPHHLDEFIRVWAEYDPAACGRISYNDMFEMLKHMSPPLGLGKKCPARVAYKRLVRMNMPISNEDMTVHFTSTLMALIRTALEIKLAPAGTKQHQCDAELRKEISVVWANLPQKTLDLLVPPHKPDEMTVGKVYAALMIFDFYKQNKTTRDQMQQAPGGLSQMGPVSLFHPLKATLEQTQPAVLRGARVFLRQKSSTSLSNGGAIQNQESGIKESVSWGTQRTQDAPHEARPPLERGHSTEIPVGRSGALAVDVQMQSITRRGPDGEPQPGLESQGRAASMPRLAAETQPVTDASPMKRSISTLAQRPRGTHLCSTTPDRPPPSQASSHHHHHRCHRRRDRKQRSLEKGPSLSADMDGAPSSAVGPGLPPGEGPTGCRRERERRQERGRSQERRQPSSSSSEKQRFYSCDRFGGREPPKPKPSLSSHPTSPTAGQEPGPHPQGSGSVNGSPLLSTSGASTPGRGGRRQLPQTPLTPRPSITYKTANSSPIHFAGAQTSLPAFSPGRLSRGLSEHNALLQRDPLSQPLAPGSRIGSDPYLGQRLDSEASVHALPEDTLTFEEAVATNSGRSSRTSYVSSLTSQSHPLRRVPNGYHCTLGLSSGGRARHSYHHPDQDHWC

[7] = molecular target: Sigma intracellular receptor 2 (Homo sapiens, UniProt Q5BJF2); assay: GPCRScan assay: inhibition of Sigma 2; set-up: radioligand conc. used [nm] 5.0, parental cells HEKT
Chain of Sigma intracellular receptor 2 (Q5BJF2 whole entry): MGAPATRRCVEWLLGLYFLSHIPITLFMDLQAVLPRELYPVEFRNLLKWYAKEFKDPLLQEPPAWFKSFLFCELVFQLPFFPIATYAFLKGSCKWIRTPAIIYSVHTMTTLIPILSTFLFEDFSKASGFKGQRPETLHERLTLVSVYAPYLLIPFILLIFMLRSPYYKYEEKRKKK

[8] = molecular target: Kappa-type opioid receptor (Homo sapiens) (UniProt P41145); assay: kappa(KOP) (h) Eurofins-Cerep Cellular and Nuclear Receptor Functional Assays; settings: Compound concentration 10.0 uM
Chain of Kappa-type opioid receptor (Homo sapiens) (P41145 whole entry): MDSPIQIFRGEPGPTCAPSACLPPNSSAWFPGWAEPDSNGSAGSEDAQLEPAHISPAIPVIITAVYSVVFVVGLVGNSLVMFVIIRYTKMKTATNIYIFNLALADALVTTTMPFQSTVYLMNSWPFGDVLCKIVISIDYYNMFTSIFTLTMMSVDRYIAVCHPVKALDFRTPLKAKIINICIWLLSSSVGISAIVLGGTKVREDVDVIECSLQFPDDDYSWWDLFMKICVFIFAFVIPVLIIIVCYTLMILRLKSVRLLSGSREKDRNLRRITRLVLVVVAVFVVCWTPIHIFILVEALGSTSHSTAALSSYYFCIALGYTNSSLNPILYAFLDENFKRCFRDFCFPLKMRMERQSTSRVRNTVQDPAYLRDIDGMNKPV

[9] = molecular target: Endothelin-1 receptor (Homo sapiens) (UniProt P25101); settings: Compound concentration 10.0 uM
Chain of Endothelin-1 receptor (Homo sapiens) (P25101 whole entry): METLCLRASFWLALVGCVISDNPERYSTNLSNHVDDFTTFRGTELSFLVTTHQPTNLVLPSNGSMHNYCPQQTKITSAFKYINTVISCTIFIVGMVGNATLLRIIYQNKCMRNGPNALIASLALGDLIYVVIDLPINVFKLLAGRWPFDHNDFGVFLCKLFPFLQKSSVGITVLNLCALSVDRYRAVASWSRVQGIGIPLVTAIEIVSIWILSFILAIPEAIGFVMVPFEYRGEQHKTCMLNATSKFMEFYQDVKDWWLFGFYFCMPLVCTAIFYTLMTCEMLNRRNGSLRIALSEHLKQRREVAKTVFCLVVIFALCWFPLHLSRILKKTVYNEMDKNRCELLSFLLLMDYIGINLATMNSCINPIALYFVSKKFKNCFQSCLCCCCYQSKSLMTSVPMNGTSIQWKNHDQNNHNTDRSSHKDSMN

Rattus norvegicus [10] = organism: Rattus norvegicus; assay: Inhibition of Imidazoline I2, Central at 10 µM in the Eurofins-Panlabs radioligand binding assay (Eurofins_assay_241000); set-up: ligand concentration 2 nM; settings: Compound concentration 10.0 uM
[11] = molecular target: ATP-sensitive inward rectifier potassium channel 11 (Cricetulus griseus) (UniProt A0A3L7HHE1); assay: Inhibition of Potassium Channel [KATP] at 10 µM in the Eurofins-Panlabs radioligand binding assay (Eurofins_assay_265600); settings: Cricetinae; Compound concentration 10.0 uM
Chain of ATP-sensitive inward rectifier potassium channel 11 (Cricetulus griseus) (A0A3L7HHE1 as listed by the source): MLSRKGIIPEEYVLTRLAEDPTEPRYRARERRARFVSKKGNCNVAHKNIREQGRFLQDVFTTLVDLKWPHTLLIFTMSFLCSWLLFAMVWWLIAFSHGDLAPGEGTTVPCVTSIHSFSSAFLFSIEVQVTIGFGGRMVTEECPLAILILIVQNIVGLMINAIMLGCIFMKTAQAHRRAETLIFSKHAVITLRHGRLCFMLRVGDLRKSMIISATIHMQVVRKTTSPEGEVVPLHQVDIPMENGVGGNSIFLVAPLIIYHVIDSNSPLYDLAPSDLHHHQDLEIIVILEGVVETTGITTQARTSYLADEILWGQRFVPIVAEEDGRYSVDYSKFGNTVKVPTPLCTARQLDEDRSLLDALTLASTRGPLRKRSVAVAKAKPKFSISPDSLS

[12] = molecular target: B1 bradykinin receptor (Homo sapiens) (UniProt P46663); assay: Inhibition of Bradykinin B1 at 10 µM in the Eurofins-Panlabs radioligand binding assay (Eurofins_assay_212510); settings: Compound concentration 10.0 uM
Chain of B1 bradykinin receptor (Homo sapiens) (P46663 whole entry): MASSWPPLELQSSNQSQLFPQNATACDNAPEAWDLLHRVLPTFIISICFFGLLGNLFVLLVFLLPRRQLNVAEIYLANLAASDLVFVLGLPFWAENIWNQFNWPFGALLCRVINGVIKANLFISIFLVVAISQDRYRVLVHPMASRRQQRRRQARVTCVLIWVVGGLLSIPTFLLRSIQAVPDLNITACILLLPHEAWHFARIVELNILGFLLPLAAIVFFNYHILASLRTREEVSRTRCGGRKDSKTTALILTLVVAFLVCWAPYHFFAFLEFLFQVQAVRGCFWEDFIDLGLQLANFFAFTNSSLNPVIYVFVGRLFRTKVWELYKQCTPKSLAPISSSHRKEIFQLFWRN

[13] = molecular target: T3, Muscarinic acetylcholine receptor M1 (Homo sapiens) (UniProt P11229); settings: Compound concentration 10.0 uM
T3 sequence (whole entry): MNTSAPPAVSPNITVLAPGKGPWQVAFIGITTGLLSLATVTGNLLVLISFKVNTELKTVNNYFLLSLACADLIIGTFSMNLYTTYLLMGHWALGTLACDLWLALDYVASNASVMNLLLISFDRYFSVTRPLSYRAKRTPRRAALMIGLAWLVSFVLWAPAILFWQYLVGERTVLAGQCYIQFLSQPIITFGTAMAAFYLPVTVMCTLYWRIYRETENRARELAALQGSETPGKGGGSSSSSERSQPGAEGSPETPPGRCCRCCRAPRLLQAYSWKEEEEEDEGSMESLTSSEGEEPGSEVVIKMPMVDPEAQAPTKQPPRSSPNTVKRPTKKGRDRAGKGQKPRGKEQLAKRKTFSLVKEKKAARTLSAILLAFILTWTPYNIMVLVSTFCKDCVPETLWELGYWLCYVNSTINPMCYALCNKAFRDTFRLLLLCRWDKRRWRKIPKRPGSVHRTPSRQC

[14] = molecular target: Cysteinyl leukotriene receptor 1 (Homo sapiens) (UniProt Q9Y271); assay: Inhibition of Leukotriene, Cysteinyl CysLT1 at 10 µM in the Eurofins-Panlabs radioligand binding assay (Eurofins_assay_250460); set-up: ligand concentration 0.3 nM, non-specific ligand with concentration 0.3 µM Leukotriene D4, incubation time 30 min, incubation temperature 25 °C; settings: Compound concentration 10.0 uM
Chain of Cysteinyl leukotriene receptor 1 (Homo sapiens) (Q9Y271 whole entry): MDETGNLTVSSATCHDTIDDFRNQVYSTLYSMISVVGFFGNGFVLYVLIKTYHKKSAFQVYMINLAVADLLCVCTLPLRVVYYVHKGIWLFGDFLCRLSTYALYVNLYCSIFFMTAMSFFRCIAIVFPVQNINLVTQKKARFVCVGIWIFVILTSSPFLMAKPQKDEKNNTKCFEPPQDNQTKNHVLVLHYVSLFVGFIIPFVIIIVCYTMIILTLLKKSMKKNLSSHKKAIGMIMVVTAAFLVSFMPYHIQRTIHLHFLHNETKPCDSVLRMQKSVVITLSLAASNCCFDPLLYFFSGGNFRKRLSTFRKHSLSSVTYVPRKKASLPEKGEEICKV

[15] = molecular target: 5-hydroxytryptamine receptor 1E (Homo sapiens) (UniProt P28566); settings: Compound concentration 10.0 uM
Chain of 5-hydroxytryptamine receptor 1E (Homo sapiens) (P28566 whole entry): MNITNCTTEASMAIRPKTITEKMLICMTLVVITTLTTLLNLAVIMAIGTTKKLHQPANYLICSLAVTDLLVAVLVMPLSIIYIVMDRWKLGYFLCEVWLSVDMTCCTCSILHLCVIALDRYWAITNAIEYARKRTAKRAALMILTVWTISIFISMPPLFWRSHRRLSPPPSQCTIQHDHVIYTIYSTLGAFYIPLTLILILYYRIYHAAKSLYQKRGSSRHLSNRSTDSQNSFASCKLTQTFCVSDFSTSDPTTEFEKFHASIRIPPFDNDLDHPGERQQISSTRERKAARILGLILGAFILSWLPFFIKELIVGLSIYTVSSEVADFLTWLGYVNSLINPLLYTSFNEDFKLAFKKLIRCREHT

[16] = molecular target: T4, Muscarinic acetylcholine receptor M4 (Homo sapiens) (UniProt P08173); settings: Compound concentration 10.0 uM
T4 sequence (whole entry): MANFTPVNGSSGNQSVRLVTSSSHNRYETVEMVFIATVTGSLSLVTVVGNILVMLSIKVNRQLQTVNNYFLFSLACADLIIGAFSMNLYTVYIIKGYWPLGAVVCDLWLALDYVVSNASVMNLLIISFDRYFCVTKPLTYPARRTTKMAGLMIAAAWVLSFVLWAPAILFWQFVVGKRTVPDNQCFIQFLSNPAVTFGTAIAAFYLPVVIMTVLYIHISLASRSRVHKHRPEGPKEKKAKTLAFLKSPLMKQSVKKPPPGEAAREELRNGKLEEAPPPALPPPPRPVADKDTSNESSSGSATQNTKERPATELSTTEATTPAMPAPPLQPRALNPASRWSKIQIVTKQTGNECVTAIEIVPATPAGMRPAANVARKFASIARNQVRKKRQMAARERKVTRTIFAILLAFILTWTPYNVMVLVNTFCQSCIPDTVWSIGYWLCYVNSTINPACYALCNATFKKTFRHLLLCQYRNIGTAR

| Compound | inhibition [1] | inhibition [2] | inhibition [3] | inhibition [4] | inhibition (Oryctolagus cuniculus) | inhibition (Rattus norvegicus [5]) | inhibition [6] | Ki ([7]; read-out: Ki) | Ki ([7]; read-out: pKi (converted)) | % Inhibition of Control Agonist Response (Mean n=2) [8] | % of Control Agonist Response (Mean n=2) [8] | inhibition [9] | inhibition (Rattus norvegicus [10]) | inhibition [11] | inhibition [12] | inhibition [13] | inhibition [14] | inhibition [15] | inhibition [16] |
| --- | --- | --- | --- | --- | --- | --- | --- | --- | --- | --- | --- | --- | --- | --- | --- | --- | --- | --- | --- |
| O=C(N1CCS(=O)(=O)CC1)N1C[C@H](c2ccc(OC(F)(F)F)cc2)C[C@H](c2nc(C3CC3)no2)C1 [BAY-386] | 6% | -3% | 12% | 1% | 9% | 0% | 3% | 1.2 µM | 1.15 µM | 4.5% | 20.6% | 2% | 0% | 4% | 6% | -3% | 1% | – | – |
| Cc1noc([C@H]2C[C@@H](c3ccc(C(F)(F)F)cc3)CN(C(=O)N3CCS(=O)(=O)C3)C2)n1 [BAY-448] | – | – | – | – | – | – | – | – | – | – | – | – | – | – | – | – | – | 21.5% | -0.58% |
